Legend:
[1] = target: intracellular GCN2 (phosphorylation of the GCN2 substrate eIF2α) (Homo sapiens (Human), UniProt Q9P2K8); test: GCN2 Cellular Inhibition Assay (AlphaScreen SureFire P-eIF2α Ser51, borrelidin-treated U2OS cells); type: cell-based; conditions: 10 μM borrelidin, 1 h, phosphorylated eIF2α Ser51, read-out: GCN2 Biomarker (IC50)
Procedure, shortened: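 U2OS cells adhered overnight, then given compound (top 40 μM, 4-fold serial dilutions) plus 10 μM borrelidin for 1 h at 37 °C. Lysates assayed for eIF2α phospho-Ser51 by AlphaScreen SureFire; % inhibition versus borrelidin-only wells.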

[2] = target: GCN2 kinase (Homo sapiens (Human), UniProt Q9P2K8); test: GCN2 Enzyme Inhibition Assay (Transcreener ADP2 fluorescence polarization); type: biochemical; conditions: 280 μM ATP, 200 μM (RS)7 peptide, 4 nM GCN2, 25° C.; for Ki: Ki(app)
GCN2 kinase, sequence (Q9P2K8 whole entry): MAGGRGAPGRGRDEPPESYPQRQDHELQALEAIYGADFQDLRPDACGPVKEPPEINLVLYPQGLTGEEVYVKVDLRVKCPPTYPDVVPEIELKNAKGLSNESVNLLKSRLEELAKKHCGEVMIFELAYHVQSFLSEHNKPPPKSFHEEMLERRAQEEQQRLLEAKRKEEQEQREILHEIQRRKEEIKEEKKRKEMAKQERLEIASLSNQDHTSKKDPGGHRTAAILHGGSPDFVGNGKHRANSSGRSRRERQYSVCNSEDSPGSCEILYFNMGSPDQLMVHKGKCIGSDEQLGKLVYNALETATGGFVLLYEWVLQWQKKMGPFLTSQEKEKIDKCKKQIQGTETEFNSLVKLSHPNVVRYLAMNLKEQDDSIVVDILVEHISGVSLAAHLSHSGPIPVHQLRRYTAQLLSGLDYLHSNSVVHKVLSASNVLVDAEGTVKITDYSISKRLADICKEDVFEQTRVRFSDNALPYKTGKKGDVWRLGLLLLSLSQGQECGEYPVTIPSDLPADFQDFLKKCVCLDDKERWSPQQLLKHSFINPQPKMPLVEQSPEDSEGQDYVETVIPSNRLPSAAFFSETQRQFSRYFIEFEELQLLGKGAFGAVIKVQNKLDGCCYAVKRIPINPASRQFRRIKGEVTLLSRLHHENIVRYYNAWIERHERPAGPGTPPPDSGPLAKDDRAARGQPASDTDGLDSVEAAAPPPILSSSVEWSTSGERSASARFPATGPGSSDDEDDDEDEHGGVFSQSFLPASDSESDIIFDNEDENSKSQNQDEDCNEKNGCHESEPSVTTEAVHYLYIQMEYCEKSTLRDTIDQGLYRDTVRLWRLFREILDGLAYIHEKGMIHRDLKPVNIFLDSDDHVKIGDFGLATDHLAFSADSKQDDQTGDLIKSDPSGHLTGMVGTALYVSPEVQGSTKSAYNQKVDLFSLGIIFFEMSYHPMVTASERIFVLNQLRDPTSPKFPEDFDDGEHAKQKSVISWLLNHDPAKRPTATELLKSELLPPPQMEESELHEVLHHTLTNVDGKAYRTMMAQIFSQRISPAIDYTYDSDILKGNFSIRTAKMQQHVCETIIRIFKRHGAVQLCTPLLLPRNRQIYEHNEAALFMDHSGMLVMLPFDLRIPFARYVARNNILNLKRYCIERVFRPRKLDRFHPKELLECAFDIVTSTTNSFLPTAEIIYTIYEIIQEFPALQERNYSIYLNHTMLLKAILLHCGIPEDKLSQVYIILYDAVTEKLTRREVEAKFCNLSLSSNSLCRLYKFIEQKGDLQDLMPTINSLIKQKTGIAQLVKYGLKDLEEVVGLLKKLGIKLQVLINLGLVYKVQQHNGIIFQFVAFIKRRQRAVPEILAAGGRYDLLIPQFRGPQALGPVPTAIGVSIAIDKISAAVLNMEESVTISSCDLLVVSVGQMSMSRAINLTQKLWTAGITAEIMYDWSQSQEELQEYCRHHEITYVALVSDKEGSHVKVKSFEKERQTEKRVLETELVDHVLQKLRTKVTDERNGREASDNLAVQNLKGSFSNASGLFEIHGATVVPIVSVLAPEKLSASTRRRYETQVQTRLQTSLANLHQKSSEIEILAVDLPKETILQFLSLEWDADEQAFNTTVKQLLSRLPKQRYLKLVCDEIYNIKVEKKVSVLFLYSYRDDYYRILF
Procedure, shortened: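 Transcreener ADP2 fluorescence polarization detection of ADP from 4 nM GCN2 with (RS)7 substrate in 25 mM Tris-HCl pH 7.5, 50 mM NaCl, 10 mM MgCl2, 1 mM DTT. Compound pre-incubated with enzyme 10 min at 25 °C; reaction started by ATP, run 1 h at 25 °C. IC50 and Ki(app) by tight-binding fit.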

intracellular GCN2 (phosphorylation of the GCN2 substrate eIF2α), sequence (Q9P2K8 whole entry): as above

SMILES	IC50 [1]	IC50 [2]	Ki [2]
COc1cc(-c2cnc3ccc(Cl)cn23)nc(N2C[C@H](C)C[C@@H](c3cn[nH]c3)C2)n1 [I-280, 6-chloro-3-(6-methoxy-2-((3R,5S)-3-methyl-5-(1H-pyrazol-4-yl)piperidin-1-yl)pyrimidin-4-yl)imidazo[1,2-a]pyridine]	< 500 nM	10 to 100 nM	–
Cc1[nH]ncc1[C@H]1CN(c2nccc(-c3cnc4ccc(Cl)cn34)n2)C[C@@H](C)O1 [I-180, (2R,6S)-4-(4-(6-chloroimidazo[1,2-a]pyridin-3-yl)pyrimidin-2-yl)-2-methyl-6-(5-methyl-1H-pyrazol-4-yl)morpholine]	< 500 nM	< 10 nM	–
FC(F)(F)c1ccc2ncc(-c3nsc(N4CCOC(c5cn[nH]c5)C4)n3)n2c1 (stereo not drawn) [I-104, 2-(1H-pyrazol-4-yl)-4-(3-(6-(trifluoromethyl)imidazo[1,2-a]pyridin-3-yl)-1,2,4-thiadiazol-5-yl)morpholine]	500 to 5000 nM	–	10 to 100 nM
CC(C)n1cc(C2(O)CCCN(c3ccnc(-c4cnc5ccc(Cl)cn45)n3)C2)nn1 (stereo not drawn) [I-76, 1-[2-(6-Chloro-imidazo[1,2-a]pyridin-3-yl)-pyrimidin-4-yl]-3-(1-isopropyl-1H-[1,2,3]triazol-4-yl)-piperidin-3-ol]	> 5000 nM	–	100 to 1000 nM
C[C@@H]1CN(c2nccc(-c3cnc4ccc(Cl)cn34)n2)C[C@@H](c2cn[nH]c2)O1 [I-251, (2R,6R)-4-(4-(6-chloroimidazo[1,2-a]pyridin-3-yl)pyrimidin-2-yl)-2-methyl-6-(1H-pyrazol-4-yl)morpholine]	500 to 5000 nM	10 to 100 nM	–
FC(F)(F)c1ccc2ncc(-c3nccc(N4CCOC(c5cn[nH]c5)C4)n3)n2c1 (stereo not drawn) [I-45, 2-(1H-Pyrazol-4-yl)-4-(2-(6-(trifluoromethyl)imidazo[1,2-a]pyridin-3-yl)pyrimidin-4-yl)morpholine]	< 500 nM	–	< 10 nM
CS(=O)(=O)NC[C@@H]1CN(c2ccnc(-c3cnc4ccc(Cl)cn34)n2)CCO1 [I-19, N-[[(2S)-4-[2-(6-Chloroimidazo[1,2-a]pyridin-3-yl)pyrimidin-4-yl]morpholin-2-yl]methyl]methanesulfonamide]	500 to 5000 nM	–	10 to 100 nM
FC(F)c1ccc2ncc(-c3nsc(N4CCOC(c5cn[nH]c5)C4)n3)n2c1 (stereo not drawn) [I-105, 4-(3-(6-(difluoromethyl)imidazo[1,2-a]pyridin-3-yl)-1,2,4-thiadiazol-5-yl)-2-(1H-pyrazol-4-yl)morpholine]	> 5000 nM	–	10 to 100 nM
O=C1NCC2CN(c3ccnc(-c4cnc5ccc(C(F)(F)F)cn45)n3)CCN12 (stereo not drawn) [I-6, 7-(2-(6-(trifluoromethyl)imidazo[1,2-a]pyridin-3-yl)pyrimidin-4-yl)hexahydroimidazo[1,5-a]pyrazin-3(2H)-one]	500 to 5000 nM	–	10 to 100 nM
Cc1nn(C)cc1[C@@H]1CN(c2nccc(-c3cnc4ccc(C(F)(F)F)cn34)n2)C[C@H](C)O1 [I-157, (2R,6S)-2-(1,3-dimethyl-1H-pyrazol-4-yl)-6-methyl-4-(4-(6-(trifluoromethyl)imidazo[1,2-a]pyridin-3-yl)pyrimidin-2-yl)morpholine]	< 500 nM	100 to 1000 nM	–
O=C(O)C1(C2CCCN(c3ccnc(-c4cnc5ccc(Cl)cn45)n3)C2)CC1 (stereo not drawn) [I-297, 1-(1-(2-(6-chloroimidazo[1,2-a]pyridin-3-yl)pyrimidin-4-yl)piperidin-3-yl)cyclopropane-1-carboxylic acid]	500 to 5000 nM	10 to 100 nM	–

Next, values leading:

IC50 [1]	IC50 [2]	Ki [2]	SMILES
500 to 5000 nM	100 to 1000 nM	–	C[C@@H]1CN(c2ccnc(-c3cnc4ccc(C(F)(F)F)cn34)n2)C[C@H](C)N1C(=O)CC1CCOCC1 [I-464, 1-(cis-2,6-dimethyl-4-(2-(6-(trifluoromethyl)imidazo[1,2-a]pyridin-3-yl)pyrimidin-4-yl)piperazin-1-yl)-2-(tetrahydro-2H-pyran-4-yl)ethan-1-one]
500 to 5000 nM	< 10 nM	–	Cc1ncc(CN2CCN(c3ccnc(-c4cnc5ccc(C(F)(F)F)cn45)n3)CC2c2cn[nH]c2)[nH]1 (stereo not drawn) [I-372, 3-(4-(4-((2-methyl-1H-imidazol-5-yl)methyl)-3-(1H-pyrazol-4-yl)piperazin-1-yl)pyrimidin-2-yl)-6-(trifluoromethyl)imidazo[1,2-a]pyridine]
< 500 nM	< 10 nM	–	CC1(C)C[C@@H]1CN1CCN(c2ccnc(-c3cnc4ccc(C(F)(F)F)cn34)n2)C[C@H]1c1cn[nH]c1 [I-529, 3-(4-((R)-4-(((S)-2,2-dimethylcyclopropyl)methyl)-3-(1H-pyrazol-4-yl)piperazin-1-yl)pyrimidin-2-yl)-6-(trifluoromethyl)imidazo[1,2-a]pyridine]
< 500 nM	< 10 nM	–	FC(F)(F)c1ccc2ncc(-c3nccc(N4CCN(CC5CC5)C(c5cn[nH]c5)C4)n3)n2c1 (stereo not drawn) [I-369, 4-[4-(cyclopropylmethyl)-3-(1H-pyrazol-4-yl)piperazin-1-yl]-2-[6-(trifluoromethyl)imidazo[1,2-a]pyridin-3-yl]pyrimidine]
500 to 5000 nM	10 to 100 nM	–	CS(=O)(=O)c1ccc2ncc(-c3nccc(N4CCCC(c5cn[nH]c5)C4)n3)n2c1 (stereo not drawn) [I-313, 3-(4-(3-(1H-pyrazol-4-yl)piperidin-1-yl)pyrimidin-2-yl)-6-(methylsulfonyl)imidazo[1,2-a]pyridine]
< 500 nM	< 10 nM	–	FC(F)(F)c1ccc2ncc(-c3nccc(N4CCN(Cc5cocn5)C(c5cn[nH]c5)C4)n3)n2c1 (stereo not drawn) [I-353, 4-((2-(1H-pyrazol-4-yl)-4-(2-(6-(trifluoromethyl)imidazo[1,2-a]pyridin-3-yl)pyrimidin-4-yl)piperazin-1-yl)methyl)oxazole]
< 500 nM	10 to 100 nM	–	Cc1[nH]ncc1[C@H]1C[C@@H](N=S(C)(C)=O)CN(c2ccnc(-c3cnc4ccc(C(F)(F)F)cn34)n2)C1 [I-342, dimethyl(((3R,5R)-5-(5-methyl-1H-pyrazol-4-yl)-1-(2-(6-(trifluoromethyl)imidazo[1,2-a]pyridin-3-yl)pyrimidin-4-yl)piperidin-3-yl)imino)-λ6-sulfanone]
> 5000 nM	10 to 100 nM	–	O=C(CCn1ccnc1)N1CCN(c2ccnc(-c3cnc4ccc(C(F)(F)F)cn34)n2)CC1c1cn[nH]c1 (stereo not drawn) [I-422, 1-(2-(1H-pyrazol-4-yl)-4-(2-(6-(trifluoromethyl)imidazo[1,2-a]pyridin-3-yl)pyrimidin-4-yl)piperazin-1-yl)-3-(1H-imidazol-1-yl)propan-1-one]
500 to 5000 nM	100 to 1000 nM	–	CC(C)n1cc(C(=O)N2CCN(c3ccnc(-c4cnc5ccc(C(F)(F)F)cn45)n3)CC2c2cn[nH]c2)cn1 (stereo not drawn) [I-391, (2-(1H-pyrazol-4-yl)-4-(2-(6-(trifluoromethyl)imidazo[1,2-a]pyridin-3-yl)pyrimidin-4-yl)piperazin-1-yl)(1-isopropyl-1H-pyrazol-4-yl)methanone]
< 500 nM	< 10 nM	–	COCC1(CN2CCN(c3ccnc(-c4cnc5ccc(C(F)(F)F)cn45)n3)[C@H](C)[C@@H]2c2cn[nH]c2)CCC1 (stereo in doubt) [I-511, 4-[(2R,3 S)-4-{[1-(methoxymethyl)cyclobutyl]methyl}-2-methyl-3-(1H-pyrazol-4-yl)piperazin-1-yl]-2-[6-(trifluoromethyl)imidazo[1,2-a]pyridin-3-yl]pyrimidine]
500 to 5000 nM	100 to 1000 nM	–	C[C@@H]1[C@@H](c2cn[nH]c2)N(C2COC2)CCN1c1ccnc(-c2cnc3ccc(C(F)(F)F)cn23)n1 [I-363, 3-(4-((2R,3R)-2-methyl-4-(oxetan-3-yl)-3-(1H-pyrazol-4-yl)piperazin-1-yl)pyrimidin-2-yl)-6-(trifluoromethyl)imidazo[1,2-a]pyridine]
< 500 nM	< 10 nM	–	FC(F)(F)c1ccc2ncc(-c3nccc(N4CCN(C[C@H]5CC56CCOCC6)[C@@H](c5cn[nH]c5)C4)n3)n2c1 [I-521, 3-(4-((S)-4-(((S)-6-oxaspiro[2.5]octan-1-yl)methyl)-3-(1H-pyrazol-4-yl)piperazin-1-yl)pyrimidin-2-yl)-6-(trifluoromethyl)imidazo[1,2-a]pyridine]
< 500 nM	< 10 nM	–	FC(F)(F)c1ccc2ncc(-c3nccc(N4CCN(CC5CC56CCOCC6)C(c5cn[nH]c5)C4)n3)n2c1 (stereo not drawn) [I-476, 4-[4-({6-oxaspiro[2.5]octan-1-yl}methyl)-3-(1H-pyrazol-4-yl)piperazin-1-yl]-2-[6-(trifluoromethyl)imidazo[1,2-a]pyridin-3-yl]pyrimidine]
< 500 nM	< 10 nM	–	C[C@@H]1C[C@H](N=S(C)(C)=O)CN(c2ccnc(-c3cnc4ccc(C(F)F)cn34)n2)C1 [I-340, (((3 S, 5R)-1-(2-(6-(difluoromethyl)imidazo[1,2-a]pyridin-3-yl)pyrimidin-4-yl)-5-methylpiperidin-3-yl)imino)dimethyl-λ6-sulfanone]
> 5000 nM	100 to 1000 nM	–	O=S(=O)(NC1CC1)c1ccc2ncc(-c3nccc(N4CCCC(c5cn[nH]c5)C4)n3)n2c1 (stereo not drawn) [I-318, 3-(4-(3-(1H-pyrazol-4-yl)piperidin-1-yl)pyrimidin-2-yl)-N-cyclopropylimidazo[1,2-a]pyridine-6-sulfonamide]
> 5000 nM	100 to 1000 nM	–	NC(=O)[C@@H]1CN(c2ccnc(-c3cnc4ccc(C(F)(F)F)cn34)n2)CCN1C1CC1 [I-324, (S)-1-cyclopropyl-4-(2-(6-(trifluoromethyl)imidazzo[1,2-a]pyridin-3-yl)pyrimidin-4-yl)piperazine-2-carboxamide]

Reference: patent publication US10793563B2, “GCN2 inhibitors and uses thereof” (Merck Patent GmbH, priority 2018, dated 2020)
